Assay results from PMC11579512, “Deoxybouvardin-glucoside induces apoptosis in non-small cell lung cancer cells by targeting EGFR/MET and AKT signaling pathway” (EXCLI Journal, 2024).

Assays:
HCC827 cells [1] = assay: Soft agar anchorage-independent growth, HCC827; assay type: cell-based, human; conditions: 2 weeks
Experimental: The anchorage-independent cell growth assay was performed in 6-well plates with dual agar layers containing 0.6 % agar (lower layer) and 0.3 % agar (upper layer) supplemented with BME, 2 mM L-glutamine, 5 μg/ml gentamicin, and 10 % FBS. After 2 weeks of incubation, the number of colonies was assessed using a microscope (Leica, Wetzlar, Germany), and the mean colony area was analyzed using i-Solution ^TM software (Vancouver, BC, Canada).

EGFR = target: T1, EGFR (Homo sapiens, UniProt P00533); assay: In vitro ADP-Glo kinase assay, EGFR; assay type: biochemical
T1 construct: purchased Promega
Experimental: Subsequently, each well was added with ADP-Glo reagent and incubated for another 40 min. After completion of the kinase reaction, each well was added with kinase activity detection reagent and then incubated for 30 min. Liquid was dispensed with I.DOT (Dispendix, Stuttgart, Germany). Luminescence was measured on a Centro LB 960 microplate luminometer (Berthold Technologies).

p-EGFR (Y1068) = assay: Western blot p-EGFR (Y1068) in HCC827 and HCC827GR cells; assay type: cell-based, human; conditions: DBG 3, 6, 12 nM, 48 h
Experimental: (§1) HaCaT cells were grown in DMEM, whereas HCC827 and HCC827GR cells were grown in RPMI 1640. All culture media were supplemented with FBS (10 %) and P/S (1 %), and the cells were grown at 37 °C in 5 % CO2.
(§2) Cells were lysed in RIPA buffer, and protein concentration was determined using a Bio-Rad DC Protein Assay kit (Bio-Rad, Hercules, CA, USA). Protein samples from the cell lysates were resolved by sodium dodecyl sulfate-polyacrylamide gel electrophoresis and then transferred onto polyvinylidene fluoride membranes. The membranes were blocked with 3 % or 5 % skim milk and then incubated at 4 °C overnight with the indicated primary antibodies, followed by the corresponding horseradish peroxidase-conjugated secondary antibodies at RT for 2 h. Protein bands were visualized using western blotting luminol reagent solution and ImageQuant LAS 500 (GE Healthcare, Uppsala, Sweden). The density of the bands was quantified using ImageJ software (NIH, Bethesda, MD, USA).

HCC827GR cells = assay: Cell cycle distribution (Muse, PI), HCC827GR; assay type: cell-based, human; conditions: 48 h
Experimental: as §1
Cell cycle distribution analysis was performed using a Muse™ Cell Cycle Kit (MCH100106, Merck Millipore, Billerica, MA) based on propidium iodide (PI) staining. The cells were collected, fixed in 70 % ethanol overnight at -20 °C, and then stained with a Muse™ Cell Cycle Reagent at RT for 30 min in the dark. The cell cycle distribution was measured using a Muse™ Cell Analyzer (Merck Millipore).

HCC827 cells [2] = assay: Intracellular ROS (Muse Oxidative Stress Kit), HCC827; assay type: cell-based, human; conditions: 48 h, control 7.32 %
Experimental: as §1
The levels of intracellular ROS were measured using a Muse™ Oxidative Stress Kit (MCH100111, Merck Millipore) in accordance with the manufacturer's instructions. The cells were incubated with a Muse™ Oxidative Stress Reagent working solution in the dark at 37 °C for 30 min. Intracellular ROS generation was measured using a Muse™ Cell Analyzer.

caspase-3 = assay: Immunoblot caspase-3 with NAC pretreatment, HCC827 and HCC827GR cells; assay type: cell-based, human; conditions: for caspase3 protein Ratio: control = 1.00
Experimental: as §1, §2

[3] = system: cytochrome c (mitochondrial); assay: Immunoblot mitochondrial cytochrome c in HCC827 and HCC827GR cells; assay type: cell-based, human; conditions: for cyto c (mitosol) protein Ratio: DBG 0 nM = 1.00
Experimental: as §2
The cells were suspended in plasma membrane extraction buffer [250 mM sucrose, 10 mM HEPES (pH 8.0), 10 mM KCl, 1.5 mM MgCl2• 6H2O, 1 mM EGTA, 1 mM EDTA, 0.1 mM PMSF, 0.01 mg/ml aprotinin, and 0.01 mg/ml leupeptin], and 0.1 % digitonin was added for vortexing (1 min). The supernatant was collected as the cytosolic fraction. The pellet was resuspended in plasma membrane extraction buffer containing 0.5 % Triton X-100. The lysates were centrifuged at 13,000 rpm for 30 min to separate the mitochondrial fraction.

PARP = assay: Immunoblot PARP in HCC827 and HCC827GR cells; assay type: cell-based, human; conditions: for PARP protein Ratio: DBG 0 nM = 1.00
Experimental: as §1, §2

T1 sequence (P00533 25-1210): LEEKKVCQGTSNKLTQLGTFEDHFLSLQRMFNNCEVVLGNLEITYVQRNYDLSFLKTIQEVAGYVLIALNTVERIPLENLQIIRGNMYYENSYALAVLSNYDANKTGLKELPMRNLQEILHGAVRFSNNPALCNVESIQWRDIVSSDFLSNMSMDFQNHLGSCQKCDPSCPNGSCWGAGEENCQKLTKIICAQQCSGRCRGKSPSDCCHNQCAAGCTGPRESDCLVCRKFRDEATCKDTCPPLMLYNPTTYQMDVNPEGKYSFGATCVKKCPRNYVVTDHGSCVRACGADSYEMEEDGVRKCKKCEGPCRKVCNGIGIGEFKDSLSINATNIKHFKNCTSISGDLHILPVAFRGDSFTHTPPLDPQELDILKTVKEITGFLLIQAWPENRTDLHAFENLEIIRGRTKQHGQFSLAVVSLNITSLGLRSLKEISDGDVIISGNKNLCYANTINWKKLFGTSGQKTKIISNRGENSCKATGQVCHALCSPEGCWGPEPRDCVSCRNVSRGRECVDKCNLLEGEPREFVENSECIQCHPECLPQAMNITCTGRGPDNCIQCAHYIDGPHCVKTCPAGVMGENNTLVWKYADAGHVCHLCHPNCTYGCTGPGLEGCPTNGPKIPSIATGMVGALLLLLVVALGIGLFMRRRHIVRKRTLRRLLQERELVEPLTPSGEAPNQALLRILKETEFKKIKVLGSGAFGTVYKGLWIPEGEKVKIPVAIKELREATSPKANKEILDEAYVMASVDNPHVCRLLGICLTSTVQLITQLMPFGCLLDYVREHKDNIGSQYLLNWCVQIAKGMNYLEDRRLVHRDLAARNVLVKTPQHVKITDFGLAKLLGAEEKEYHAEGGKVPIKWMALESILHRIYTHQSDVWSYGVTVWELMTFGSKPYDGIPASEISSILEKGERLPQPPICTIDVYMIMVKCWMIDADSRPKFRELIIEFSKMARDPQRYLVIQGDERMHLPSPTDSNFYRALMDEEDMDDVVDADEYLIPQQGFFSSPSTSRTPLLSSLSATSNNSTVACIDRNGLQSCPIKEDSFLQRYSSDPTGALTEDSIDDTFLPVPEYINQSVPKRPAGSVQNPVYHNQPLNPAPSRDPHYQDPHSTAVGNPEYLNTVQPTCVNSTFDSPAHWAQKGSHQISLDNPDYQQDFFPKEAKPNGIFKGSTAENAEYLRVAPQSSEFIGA

IC50 (EGFR; ADP-Glo, EGFR 4 ng, RT, 60 min, luminescence, n=3): 7.23 nM
kinase activity, in words (EGFR; DBG 3, 6, 12 nM): significantly inhibited
SMILES: COc1ccc(C[C@H]2C(=O)N[C@@H](C)C(=O)N(C)[C@H]3Cc4ccc(cc4)Oc4cc(ccc4O[C@@H]4O[C@H](CO)[C@@H](O)[C@H](O)[C@H]4O)C[C@@H](C(=O)N[C@H](C)C(=O)N[C@@H](C)C(=O)N2C)N(C)C3=O)cc1 [DBG, deoxybouvardin glucoside]
colony number, Control % (HCC827 cells [1]; DBG 3 nM): 58.65%
colony size, Control % (HCC827 cells [1]; DBG 3 nM): 78.77%
colony number, Control % (HCC827 cells [1]; DBG 6 nM): 34.62%
colony size, Control % (HCC827 cells [1]; DBG 6 nM): 57.75%
colony number, Control % (HCC827 cells [1]; DBG 12 nM): 0.00%
colony size, Control % (HCC827 cells [1]; DBG 12 nM): 0.00%
phosphorylation level of EGFR (p-EGFR (Y1068)): decreased
G0/G1 distribution (HCC827GR cells; DBG 3 nM, mean of 3 samples): 53.10
G2/M distribution (HCC827GR cells; DBG 3 nM, mean of 3 samples): 37.67
S distribution (HCC827GR cells; DBG 3 nM, mean of 3 samples): 9.23
G0/G1 distribution (HCC827GR cells; DBG 3 nM, sample 1): 51.80
G2/M distribution (HCC827GR cells; DBG 3 nM, sample 1): 39.10
S distribution (HCC827GR cells; DBG 3 nM, sample 1): 9.10
G0/G1 distribution (HCC827GR cells; DBG 3 nM, sample 2): 53.80
G2/M distribution (HCC827GR cells; DBG 3 nM, sample 2): 36.60
S distribution (HCC827GR cells; DBG 3 nM, sample 2): 9.60
G0/G1 distribution (HCC827GR cells; DBG 3 nM, sample 3): 53.70
G2/M distribution (HCC827GR cells; DBG 3 nM, sample 3): 37.30
S distribution (HCC827GR cells; DBG 3 nM, sample 3): 9.00
G0/G1 distribution (HCC827GR cells; DBG 6 nM, mean of 3 samples): 54.77
G2/M distribution (HCC827GR cells; DBG 6 nM, mean of 3 samples): 36.33
S distribution (HCC827GR cells; DBG 6 nM, mean of 3 samples): 8.90
G0/G1 distribution (HCC827GR cells; DBG 6 nM, sample 1): 54.30
G2/M distribution (HCC827GR cells; DBG 6 nM, sample 1): 36.50
S distribution (HCC827GR cells; DBG 6 nM, sample 1): 9.20
G0/G1 distribution (HCC827GR cells; DBG 6 nM, sample 2): 53.10
G2/M distribution (HCC827GR cells; DBG 6 nM, sample 2): 37.80
S distribution (HCC827GR cells; DBG 6 nM, sample 2): 9.10
G0/G1 distribution (HCC827GR cells; DBG 6 nM, sample 3): 56.90
G2/M distribution (HCC827GR cells; DBG 6 nM, sample 3): 34.70
S distribution (HCC827GR cells; DBG 6 nM, sample 3): 8.40
G0/G1 distribution (HCC827GR cells; DBG 12 nM, mean of 3 samples): 56.93
G2/M distribution (HCC827GR cells; DBG 12 nM, mean of 3 samples): 34.27
S distribution (HCC827GR cells; DBG 12 nM, mean of 3 samples): 8.77
G0/G1 distribution (HCC827GR cells; DBG 12 nM, sample 1): 57.50
G2/M distribution (HCC827GR cells; DBG 12 nM, sample 1): 33.40
S distribution (HCC827GR cells; DBG 12 nM, sample 1): 9.00
G0/G1 distribution (HCC827GR cells; DBG 12 nM, sample 2): 56.20
G2/M distribution (HCC827GR cells; DBG 12 nM, sample 2): 35.10
S distribution (HCC827GR cells; DBG 12 nM, sample 2): 8.70
G0/G1 distribution (HCC827GR cells; DBG 12 nM, sample 3): 57.10
G2/M distribution (HCC827GR cells; DBG 12 nM, sample 3): 34.30
S distribution (HCC827GR cells; DBG 12 nM, sample 3): 8.60
increase in proportion of cells at G1 phase (HCC827GR cells; concentration not given): 2.36%
ROS level (HCC827 cells [2]; DBG 3 nM): 18.40%
ROS level (HCC827 cells [2]; DBG 6 nM): 47.32%
ROS level (HCC827 cells [2]; DBG 12 nM): 70.22%
caspase3 protein/actin (caspase-3; HCC827, DBG 12 nM, control 0.39): 0.07
caspase3 protein Ratio (caspase-3; HCC827, DBG 12 nM): 0.18
caspase3 protein/actin (caspase-3; HCC827, NAC 4 mM + DBG 12 nM, control 0.39): 0.60
caspase3 protein Ratio (caspase-3; HCC827, NAC 4 mM + DBG 12 nM): 1.53
caspase3 protein/actin (caspase-3; HCC827GR, DBG 12 nM, control 0.59): 0.24
caspase3 protein Ratio (caspase-3; HCC827GR, DBG 12 nM): 0.41
caspase3 protein/actin (caspase-3; HCC827GR, NAC 4 mM + DBG 12 nM, control 0.59): 0.45
caspase3 protein Ratio (caspase-3; HCC827GR, NAC 4 mM + DBG 12 nM): 0.77
cyto c (mitosol) cyto c/COX4/actin (A) ([3]; HCC827, DBG 3 nM, DBG 0 nM 119.45): 66.38
cyto c (mitosol) protein Ratio ([3]; HCC827, DBG 3 nM): 0.56
cyto c (mitosol) cyto c/COX4/actin (A) ([3]; HCC827, DBG 6 nM, DBG 0 nM 119.45): 25.00
cyto c (mitosol) protein Ratio ([3]; HCC827, DBG 6 nM): 0.21
cyto c (mitosol) cyto c/COX4/actin (A) ([3]; HCC827, DBG 12 nM, DBG 0 nM 119.45): 23.24
cyto c (mitosol) protein Ratio ([3]; HCC827, DBG 12 nM): 0.19
cyto c (mitosol) cyto c/COX4/actin (A) ([3]; HCC827GR, DBG 3 nM, DBG 0 nM 168.86): 137.25
cyto c (mitosol) protein Ratio ([3]; HCC827GR, DBG 3 nM): 0.81
cyto c (mitosol) cyto c/COX4/actin (A) ([3]; HCC827GR, DBG 6 nM, DBG 0 nM 168.86): 47.89
cyto c (mitosol) protein Ratio ([3]; HCC827GR, DBG 6 nM): 0.28
cyto c (mitosol) cyto c/COX4/actin (A) ([3]; HCC827GR, DBG 12 nM, DBG 0 nM 168.86): 7.39
cyto c (mitosol) protein Ratio ([3]; HCC827GR, DBG 12 nM): 0.0438
PARP protein/actin (PARP; HCC827, DBG 3 nM, DBG 0 nM 0.88): 0.17
PARP protein Ratio (PARP; HCC827, DBG 3 nM): 0.20
PARP protein/actin (PARP; HCC827, DBG 6 nM, DBG 0 nM 0.88): 0.14
PARP protein Ratio (PARP; HCC827, DBG 6 nM): 0.16
PARP protein/actin (PARP; HCC827, DBG 12 nM, DBG 0 nM 0.88): 0.15
PARP protein Ratio (PARP; HCC827, DBG 12 nM): 0.17
PARP protein/actin (PARP; HCC827GR, DBG 3 nM, DBG 0 nM 0.78): 0.46
PARP protein Ratio (PARP; HCC827GR, DBG 3 nM): 0.59
PARP protein/actin (PARP; HCC827GR, DBG 6 nM, DBG 0 nM 0.78): 0.23
PARP protein Ratio (PARP; HCC827GR, DBG 6 nM): 0.29
PARP protein/actin (PARP; HCC827GR, DBG 12 nM, DBG 0 nM 0.78): 0.12
PARP protein Ratio (PARP; HCC827GR, DBG 12 nM): 0.16
level of whole PARP (PARP; HCC827 and HCC827GR, DBG): decreased
